Test results: patent publication US6225494A, “Trisubstituted phenyl derivatives having retinoid agonist or inverse agonist type biological activity” (Allergan Sales, Inc., priority 1999, dated 2001)

Tests used:
Test in all cases: Ligand binding assay
RARα = target: T1, RARα (Homo sapiens, UniProt P10276)
T1 sequence (P10276 1-462): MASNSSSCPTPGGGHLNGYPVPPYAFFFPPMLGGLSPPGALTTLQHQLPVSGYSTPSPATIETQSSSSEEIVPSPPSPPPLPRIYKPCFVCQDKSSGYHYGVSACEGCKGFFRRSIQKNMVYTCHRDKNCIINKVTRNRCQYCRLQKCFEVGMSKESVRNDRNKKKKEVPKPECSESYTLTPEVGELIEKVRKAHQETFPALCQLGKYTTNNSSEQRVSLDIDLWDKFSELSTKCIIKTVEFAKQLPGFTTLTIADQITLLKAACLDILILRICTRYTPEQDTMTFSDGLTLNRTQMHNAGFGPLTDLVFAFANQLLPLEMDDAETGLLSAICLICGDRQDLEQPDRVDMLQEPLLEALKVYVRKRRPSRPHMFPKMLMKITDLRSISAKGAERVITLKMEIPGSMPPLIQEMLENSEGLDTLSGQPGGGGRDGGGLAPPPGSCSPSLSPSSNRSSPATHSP
From the text: (§1) Other assays described below, measure the ability of the compounds of the present invention to bind to, and/or activate various retinoid receptor subtypes. When in these assays a compound binds to a given receptor subtype and activates the transcription of a reporter gene through that subtype, then the compound is considered an agonist of that receptor subtype. […] In the below described assays the ability of the compounds to bind to RARα, RARβ, RARγ, RXRα, RXRβ and RXR.tau. receptors, and the ability or inability of the compounds to activate transcription of a reporter gene through these receptor subtypes can be tested.
(§2) A holoreceptor transactivation assay and a ligand binding assay which measure the antagonist/agonist like activity of the compounds of the invention, or their ability to bind to the several retinoid receptor subtypes, respectively, are described in published PCT Application No. WO WO93/11755 (particularly on pages 30-33 and 37-41) published on Jun. 24, 1993, the specification of which is also incorporated herein by reference. A detailed experimental procedure for holoreceptor transactivations has been described by Heyman et aL Cell 68, 397-406, (1992); Allegretto et aL J. Biol. Chem. 268, 26625-26633, and Mangelsdorf et aL The Retinoids: Biology, Chemistry and Medicine, pp 319-349, Raven Press Ltd., New York, which are expressly incorporated herein by reference. The results obtained in this assay are expressed in EC50 numbers, as they are also in the chimeric receptor transactivation assay. The results of ligand binding assay are expressed in Kd numbers. (See Cheng et aL Biochemical Pharmacology Vol. 22 pp 3099-3108, expressly incorporated herein by reference.)

RARβ = target: T2, RARβ (Homo sapiens, UniProt P10826); conditions: read-out: Kd RABβ
T2 sequence (P10826 1-448 isoform P10826-2): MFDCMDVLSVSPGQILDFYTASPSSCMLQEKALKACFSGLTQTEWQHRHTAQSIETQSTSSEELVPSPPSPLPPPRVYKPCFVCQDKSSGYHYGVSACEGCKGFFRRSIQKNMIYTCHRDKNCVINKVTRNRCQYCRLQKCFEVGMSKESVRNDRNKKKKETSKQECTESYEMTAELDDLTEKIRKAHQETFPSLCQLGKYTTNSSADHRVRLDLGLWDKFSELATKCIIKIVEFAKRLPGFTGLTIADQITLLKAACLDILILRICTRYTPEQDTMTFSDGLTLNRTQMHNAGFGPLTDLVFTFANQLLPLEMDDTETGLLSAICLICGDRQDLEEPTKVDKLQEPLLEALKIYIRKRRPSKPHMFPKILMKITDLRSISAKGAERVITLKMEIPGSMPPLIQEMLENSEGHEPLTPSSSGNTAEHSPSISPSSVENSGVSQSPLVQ
From the text: as §1, §2

RARγ = target: T3, RARγ (Homo sapiens, UniProt P13631)
T3 sequence (P13631 1-454): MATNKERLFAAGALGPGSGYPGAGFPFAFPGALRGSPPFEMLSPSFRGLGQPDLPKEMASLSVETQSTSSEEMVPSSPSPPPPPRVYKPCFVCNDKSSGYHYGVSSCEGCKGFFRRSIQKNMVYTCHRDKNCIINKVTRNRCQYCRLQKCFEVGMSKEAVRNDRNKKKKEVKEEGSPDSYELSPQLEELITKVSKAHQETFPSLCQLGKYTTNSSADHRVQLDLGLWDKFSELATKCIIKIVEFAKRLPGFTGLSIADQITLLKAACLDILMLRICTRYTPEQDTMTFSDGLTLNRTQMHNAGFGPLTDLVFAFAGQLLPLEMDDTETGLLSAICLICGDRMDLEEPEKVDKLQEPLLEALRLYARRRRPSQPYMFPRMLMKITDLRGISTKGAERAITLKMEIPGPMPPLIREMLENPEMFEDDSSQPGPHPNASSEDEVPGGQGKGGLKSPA
From the text: as §1, §2

SMILES	Kd (RARα) [nM]	Kd (RARβ) [nM]	Kd (RARγ) [nM]
C=C(c1ccc(C)cc1)c1cccc(C#Cc2ccc(C(=O)O)cc2)c1 [Compound 20, 4-[[3'-(1-p-Tolyl)vinyl]phenylethynyl]benzoic acid]	> 1000	224	> 1000
C=C(c1ccc(C)cc1)c1cc(C#Cc2ccc(C(=O)O)cc2)ccc1OC(C)C [Compound 28, 4-[[4'-Isopropoxy-3'-(1-p-tolyl)vinyl]phenylethynyl]benzoic acid]	2090	538	949
C=C(c1ccc(C)cc1)c1cc(C#Cc2ccc(C(=O)O)cc2)ccc1O [Compound 8, 4-[[4'-Hydroxy-3'-(1-p-tolyl)vinyl]phenylethynyl]benzoic acid]	8200	1320	5220
C=C(c1cccc(C)c1)c1cc(C#Cc2ccc(C(=O)O)cc2)ccc1OC(C)C [Compound 31, 4-[[4'-Isopropoxy-3'-(1-m-tolyl)vinyl]phenylethynyl]benzoic acid]	3290	488	366
COc1ccc(C#Cc2ccc(C(=O)O)cc2)cc1C(=O)c1ccc(C)cc1 [Compound 22, 4-[[4'-methoxy-3'-(4"-methyl)benzoyl]phenylethynyl]benzoic acid]	1600	763	1500

Other lines, results leading:

Kd (RARα) [nM]	Kd (RARβ) [nM]	Kd (RARγ) [nM]	SMILES
1150	217	1960	Cc1ccc(C(=O)c2cc(C#Cc3ccc(C(=O)O)c(F)c3)c(C)cc2O)cc1 [Compound 25, 4-[[4'-Hydroxy-2'-methyl-5'-(4"-methyl)benzoyl]phenylethynyl]-2-fluoro-benzoic acid]
339	98	897	Cc1ccc(C(=O)c2cc(C#Cc3ccc(C(=O)O)cc3)ccc2O)cc1 [Compound 5, 4-[[4'-hydroxy-3'-(4"-methyl)benzoyl]phenylethynyl]benzoic acid]
942	152	730	C=C(c1ccc(C)cc1)c1cc(C#Cc2ccc(C(=O)O)cc2)ccc1OCOC [Compound 9, 4-[[4'-methoxymethoxy-3'-(1-p-tolyl)vinyl]phenylethynyl]benzoic acid]
1160	233	817	C=C(c1ccc(C)cc1)c1cc(C#Cc2ccc(C(=O)O)c(F)c2)ccc1OC(C)C [Compound 29, 4-[[4'-Isopropoxy-3'-(1-p-tolyl)vinyl]phenylethynyl]-2-fluoro-benzoic acid]
1450	193	394	C=C(c1ccc(C)cc1)c1cc(C#Cc2ccc(C(=O)O)cc2)ccc1OC [Compound 12, 4-[[4'-Methoxy-3'-(1-p-tolyl)vinyl]phenylethynyl]benzoic acid]
1190	487	902	COCOc1ccc(C#Cc2ccc(C(=O)O)cc2)cc1C(=O)c1ccc(C)cc1 [Compound 13]
